Assays:
human NTPDase1 = target: T1, human NTPDase1 (Homo sapiens, UniProt P49961); assay: NTPDase inhibition assay by capillary electrophoresis (CE), NTPDase1; type: biochemical; settings: CE method, ATP 320 μM, Km 17 μM, read-out: NTPDase1 Ki [μM] ± SEM
T1 sequence (P49961 1-510): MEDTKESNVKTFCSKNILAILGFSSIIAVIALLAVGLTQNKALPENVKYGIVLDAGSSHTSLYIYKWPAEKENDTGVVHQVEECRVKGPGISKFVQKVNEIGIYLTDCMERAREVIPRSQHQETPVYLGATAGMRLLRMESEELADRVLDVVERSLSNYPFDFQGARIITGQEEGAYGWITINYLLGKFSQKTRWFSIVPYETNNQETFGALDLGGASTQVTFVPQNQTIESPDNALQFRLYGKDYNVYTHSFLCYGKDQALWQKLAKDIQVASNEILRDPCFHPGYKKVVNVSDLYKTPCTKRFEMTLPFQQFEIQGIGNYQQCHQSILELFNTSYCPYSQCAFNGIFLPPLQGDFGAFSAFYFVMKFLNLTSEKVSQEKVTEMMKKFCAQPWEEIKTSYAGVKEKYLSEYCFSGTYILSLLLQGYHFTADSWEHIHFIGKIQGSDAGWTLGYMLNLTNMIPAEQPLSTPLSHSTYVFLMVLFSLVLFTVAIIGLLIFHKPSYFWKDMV
Summary of the method: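 Recombinant or native human NTPDase was run with 320 μM ATP in Hepes buffer pH 7.4 (NaCl, KCl, MgCl2, CaCl2) at 37° C for 15 min, stopped by heating at 99° C. Products were quantified by capillary electrophoresis (UV 210 nm, UMP internal standard). IC50 from 6-8 concentrations was converted to Ki by Cheng-Prusoff.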

human NTPDase2 = target: T2, human NTPDase2 (Homo sapiens, UniProt Q9Y5L3); assay: NTPDase inhibition assay by capillary electrophoresis (CE), NTPDase2; type: biochemical; settings: for inhibition at 1000 µM: read-out: NTPDase2 inhibition (%) at 1 mM
T2 sequence (Q9Y5L3 1-495): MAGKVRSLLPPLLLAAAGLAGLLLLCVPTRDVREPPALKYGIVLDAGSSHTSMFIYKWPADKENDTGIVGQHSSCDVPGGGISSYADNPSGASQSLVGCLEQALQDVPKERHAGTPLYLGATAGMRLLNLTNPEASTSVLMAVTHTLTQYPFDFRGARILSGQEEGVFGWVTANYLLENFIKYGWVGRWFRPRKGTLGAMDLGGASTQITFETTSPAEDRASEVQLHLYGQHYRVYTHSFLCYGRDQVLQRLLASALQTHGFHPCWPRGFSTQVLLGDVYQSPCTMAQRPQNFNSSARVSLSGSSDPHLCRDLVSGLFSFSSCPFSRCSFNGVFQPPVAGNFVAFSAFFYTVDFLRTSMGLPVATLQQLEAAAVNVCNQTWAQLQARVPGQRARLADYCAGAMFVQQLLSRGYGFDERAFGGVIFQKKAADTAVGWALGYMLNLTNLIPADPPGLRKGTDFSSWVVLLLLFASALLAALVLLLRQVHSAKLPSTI

hP2Y2 = hP2Y2 (Homo sapiens, UniProt P41231); assay: Inhibition of UTP binding at hP2Y2; settings: read-out: hP2Y2 % inhibition of UTP binding at 100 μM, n = 3, mean ± SEM
Chain of hP2Y2 (P41231 whole entry): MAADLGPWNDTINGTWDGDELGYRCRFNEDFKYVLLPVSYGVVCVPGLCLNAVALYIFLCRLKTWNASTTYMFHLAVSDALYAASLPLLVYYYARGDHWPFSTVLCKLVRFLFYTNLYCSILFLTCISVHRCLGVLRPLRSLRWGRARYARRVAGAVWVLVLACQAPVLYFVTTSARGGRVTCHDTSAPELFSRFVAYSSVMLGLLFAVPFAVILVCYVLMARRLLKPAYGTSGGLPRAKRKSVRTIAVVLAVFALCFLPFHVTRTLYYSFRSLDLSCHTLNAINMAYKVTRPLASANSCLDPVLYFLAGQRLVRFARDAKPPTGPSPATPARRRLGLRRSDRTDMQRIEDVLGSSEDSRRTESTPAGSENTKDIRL
Protocol: (§1) In table 2 inhibition data of selected examples at human P2Y receptor subtypes were collected. It can be seen that no compound was identified that inhibited P2Y receptors at high concentrations of 100 μM and 10 μM, respectively.

hP2Y4 = hP2Y4 (Homo sapiens, UniProt P51582); assay: Inhibition of UTP binding at hP2Y4; settings: read-out: hP2Y4 % inhibition of UTP binding at 100 μM, n = 3, mean ± SEM
Chain of hP2Y4 (P51582 whole entry): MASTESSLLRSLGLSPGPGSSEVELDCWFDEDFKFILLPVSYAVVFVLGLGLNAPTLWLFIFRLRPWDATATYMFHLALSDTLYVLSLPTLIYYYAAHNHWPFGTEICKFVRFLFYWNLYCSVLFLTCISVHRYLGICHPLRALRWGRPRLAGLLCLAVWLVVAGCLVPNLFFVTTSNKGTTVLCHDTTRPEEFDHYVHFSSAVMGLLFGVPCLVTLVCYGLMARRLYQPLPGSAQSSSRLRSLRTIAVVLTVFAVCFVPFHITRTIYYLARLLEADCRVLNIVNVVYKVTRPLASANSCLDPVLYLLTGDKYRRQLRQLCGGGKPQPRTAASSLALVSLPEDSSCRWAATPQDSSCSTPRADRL
Protocol: as §1

rP2Y6 = rP2Y6 (Rattus norvegicus, UniProt Q63371); assay: Inhibition of UDP binding at rP2Y6; settings: read-out: rP2Y6 % inhibition of UDP binding at 100 μM, n = 3, mean ± SEM
Chain of rP2Y6 (Q63371 whole entry): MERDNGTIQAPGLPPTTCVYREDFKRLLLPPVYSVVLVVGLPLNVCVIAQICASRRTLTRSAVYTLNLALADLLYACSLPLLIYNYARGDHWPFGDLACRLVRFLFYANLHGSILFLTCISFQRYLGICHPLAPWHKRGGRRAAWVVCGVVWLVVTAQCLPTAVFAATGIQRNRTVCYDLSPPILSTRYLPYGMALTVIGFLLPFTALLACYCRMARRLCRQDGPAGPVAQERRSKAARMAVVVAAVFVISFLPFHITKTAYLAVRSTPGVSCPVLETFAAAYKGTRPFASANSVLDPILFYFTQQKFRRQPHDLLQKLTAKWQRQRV

hP2Y12 = hP2Y12 (Homo sapiens, UniProt Q9H244); assay: Inhibition of [3H]PSB-0413 binding at hP2Y12; settings: mean ± SEM, read-out: hP2Y12 % Inhibition of [^3H]PSB-0413 Binding at 10 μM, n = 3
Chain of hP2Y12 (Q9H244 whole entry): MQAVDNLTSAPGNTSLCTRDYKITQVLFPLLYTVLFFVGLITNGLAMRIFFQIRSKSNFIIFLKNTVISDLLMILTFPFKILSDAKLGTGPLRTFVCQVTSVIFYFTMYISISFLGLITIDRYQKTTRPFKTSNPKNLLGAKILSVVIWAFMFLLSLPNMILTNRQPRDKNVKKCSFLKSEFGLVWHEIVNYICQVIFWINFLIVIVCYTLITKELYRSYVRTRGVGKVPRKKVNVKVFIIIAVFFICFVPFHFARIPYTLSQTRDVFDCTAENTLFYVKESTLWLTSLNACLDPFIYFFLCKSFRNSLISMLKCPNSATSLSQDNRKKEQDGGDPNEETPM
Protocol: as §1

rat NTPDase1 = target: T3, rat NTPDase1 (Rattus norvegicus, UniProt P97687); assay: Rat NTPDase1 inhibition, in-capillary electrophoresis method (standard compounds); type: biochemical; settings: read-out: NTPDase1 Ki ± SEM
T3 sequence (P97687 1-511): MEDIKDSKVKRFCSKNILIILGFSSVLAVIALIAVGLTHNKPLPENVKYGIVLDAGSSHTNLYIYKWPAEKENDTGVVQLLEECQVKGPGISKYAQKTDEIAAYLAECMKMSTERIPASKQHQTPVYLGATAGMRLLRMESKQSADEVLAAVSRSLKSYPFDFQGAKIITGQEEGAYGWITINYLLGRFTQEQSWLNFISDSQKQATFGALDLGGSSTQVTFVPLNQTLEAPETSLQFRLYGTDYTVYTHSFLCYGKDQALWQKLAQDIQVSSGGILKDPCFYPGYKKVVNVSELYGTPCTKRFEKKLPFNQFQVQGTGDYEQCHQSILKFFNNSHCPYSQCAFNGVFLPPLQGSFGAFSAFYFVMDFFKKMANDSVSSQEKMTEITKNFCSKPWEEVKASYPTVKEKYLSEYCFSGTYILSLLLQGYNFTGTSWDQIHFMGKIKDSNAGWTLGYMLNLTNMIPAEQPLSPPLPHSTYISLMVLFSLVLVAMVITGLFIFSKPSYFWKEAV

rat NTPDase2 = target: T4, rat NTPDase2 (Rattus norvegicus, UniProt O35795); assay: Rat NTPDase2 inhibition, in-capillary electrophoresis method (standard compounds); type: biochemical; settings: read-out: NTPDase2 Ki ± SEM
T4 sequence (O35795 1-495): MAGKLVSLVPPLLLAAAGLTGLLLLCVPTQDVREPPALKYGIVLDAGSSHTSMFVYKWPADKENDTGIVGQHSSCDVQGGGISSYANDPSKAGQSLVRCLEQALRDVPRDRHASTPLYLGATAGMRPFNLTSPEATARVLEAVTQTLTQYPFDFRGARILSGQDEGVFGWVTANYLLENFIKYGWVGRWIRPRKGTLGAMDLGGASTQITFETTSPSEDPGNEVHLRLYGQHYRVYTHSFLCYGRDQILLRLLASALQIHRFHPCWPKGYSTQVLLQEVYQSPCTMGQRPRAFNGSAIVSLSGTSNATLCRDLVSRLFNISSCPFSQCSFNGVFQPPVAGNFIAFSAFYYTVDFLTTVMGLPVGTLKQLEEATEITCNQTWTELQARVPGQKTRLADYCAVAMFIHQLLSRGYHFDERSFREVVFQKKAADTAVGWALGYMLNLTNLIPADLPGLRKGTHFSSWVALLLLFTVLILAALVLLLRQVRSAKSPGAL

rat NTPDase3 = target: T5, rat NTPDase3 (Rattus norvegicus, UniProt A6I415); assay: Rat NTPDase3 inhibition, in-capillary electrophoresis method (standard compounds); type: biochemical; settings: read-out: NTPDase3 Ki ± SEM
T5 sequence (A6I415 1-529): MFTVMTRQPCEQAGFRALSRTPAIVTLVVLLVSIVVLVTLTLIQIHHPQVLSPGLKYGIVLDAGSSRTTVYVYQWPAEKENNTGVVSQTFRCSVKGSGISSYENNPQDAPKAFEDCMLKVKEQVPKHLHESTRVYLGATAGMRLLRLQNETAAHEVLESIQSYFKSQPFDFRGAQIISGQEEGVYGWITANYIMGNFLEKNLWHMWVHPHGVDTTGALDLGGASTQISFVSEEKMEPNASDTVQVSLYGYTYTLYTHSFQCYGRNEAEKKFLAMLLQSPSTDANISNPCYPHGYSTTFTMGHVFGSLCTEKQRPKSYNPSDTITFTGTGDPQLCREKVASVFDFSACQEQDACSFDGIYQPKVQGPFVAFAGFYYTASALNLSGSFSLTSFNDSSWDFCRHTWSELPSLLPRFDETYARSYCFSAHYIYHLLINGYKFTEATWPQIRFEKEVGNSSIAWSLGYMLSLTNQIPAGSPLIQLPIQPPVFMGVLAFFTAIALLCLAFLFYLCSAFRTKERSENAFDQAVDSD

[1] = system: ecto-nucleotide pyrophosphatases (E-NPP); settings: in words; cited from earlier work
P2Y2 = P2Y2 (Homo sapiens, UniProt P41231); assay: Potency of standard compounds at P2Y2 receptor; settings: SEM not given
Chain of P2Y2 (P41231 whole entry, species assumed): as the sequence (P41231 whole entry) above

P2Y4 = P2Y4 (Homo sapiens, UniProt P51582); assay: Potency of standard compounds at P2Y4 receptor
Chain of P2Y4 (P51582 whole entry, species assumed): as the sequence (P51582 whole entry) above

P2Y6 = P2Y6 (Homo sapiens, UniProt Q15077); assay: Potency of standard compounds at P2Y6 receptor; settings: for Ki: standard compounds, SEM not given
Chain of P2Y6 (Q15077 whole entry, species assumed): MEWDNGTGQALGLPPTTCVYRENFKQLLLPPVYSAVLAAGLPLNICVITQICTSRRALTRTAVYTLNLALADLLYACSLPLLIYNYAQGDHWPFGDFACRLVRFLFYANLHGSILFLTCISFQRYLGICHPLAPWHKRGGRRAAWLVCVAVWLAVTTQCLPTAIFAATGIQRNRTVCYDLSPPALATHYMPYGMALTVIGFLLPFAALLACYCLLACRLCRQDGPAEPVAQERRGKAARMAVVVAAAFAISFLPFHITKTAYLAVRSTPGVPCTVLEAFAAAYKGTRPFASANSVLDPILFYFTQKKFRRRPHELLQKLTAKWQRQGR

P2X1 = P2X1 (Homo sapiens, UniProt P51575); settings: standard inhibitors; reference mark 15; read-out: P2X1 Ki ± SEM; cited from earlier work
Chain of P2X1 (P51575 whole entry, species assumed): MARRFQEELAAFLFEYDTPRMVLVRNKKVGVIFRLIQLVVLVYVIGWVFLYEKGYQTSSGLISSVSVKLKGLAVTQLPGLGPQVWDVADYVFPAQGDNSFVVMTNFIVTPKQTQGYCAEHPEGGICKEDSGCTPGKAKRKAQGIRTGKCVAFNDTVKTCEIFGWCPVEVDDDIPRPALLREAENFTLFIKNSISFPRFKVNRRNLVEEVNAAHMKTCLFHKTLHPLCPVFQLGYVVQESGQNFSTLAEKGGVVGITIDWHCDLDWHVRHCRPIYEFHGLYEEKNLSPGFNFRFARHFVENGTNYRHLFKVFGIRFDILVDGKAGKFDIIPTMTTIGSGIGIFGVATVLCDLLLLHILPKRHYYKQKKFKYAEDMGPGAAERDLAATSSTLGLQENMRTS

P2Y12 = P2Y12 (Homo sapiens, UniProt Q9H244); assay: Potency of standard compounds at P2Y12 receptor; settings: SEM not given
Chain of P2Y12 (Q9H244 whole entry, species assumed): as the sequence (Q9H244 whole entry) above

P2X2 = P2X2 (Homo sapiens, UniProt Q9UBL9); settings: standard inhibitors; reference mark 15; read-out: P2X2 Ki ± SEM; cited from earlier work
Chain of P2X2 (Q9UBL9 whole entry, species assumed): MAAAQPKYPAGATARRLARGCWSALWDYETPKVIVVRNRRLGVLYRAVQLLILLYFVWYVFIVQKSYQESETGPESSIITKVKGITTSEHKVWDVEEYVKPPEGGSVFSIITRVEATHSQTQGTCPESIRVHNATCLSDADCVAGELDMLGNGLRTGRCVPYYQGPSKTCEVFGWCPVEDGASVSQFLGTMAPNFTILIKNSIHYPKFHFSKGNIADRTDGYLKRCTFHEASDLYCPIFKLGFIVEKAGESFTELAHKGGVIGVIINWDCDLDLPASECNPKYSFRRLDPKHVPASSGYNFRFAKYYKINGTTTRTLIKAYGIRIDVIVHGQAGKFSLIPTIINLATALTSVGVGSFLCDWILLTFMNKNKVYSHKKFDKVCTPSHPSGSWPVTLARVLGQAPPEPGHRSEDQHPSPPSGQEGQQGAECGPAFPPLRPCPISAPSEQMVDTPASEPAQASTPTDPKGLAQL

P2X3 = P2X3 (Homo sapiens, UniProt P56373); settings: standard inhibitors; reference mark 15; read-out: P2X3 Ki ± SEM; cited from earlier work
Chain of P2X3 (P56373 whole entry, species assumed): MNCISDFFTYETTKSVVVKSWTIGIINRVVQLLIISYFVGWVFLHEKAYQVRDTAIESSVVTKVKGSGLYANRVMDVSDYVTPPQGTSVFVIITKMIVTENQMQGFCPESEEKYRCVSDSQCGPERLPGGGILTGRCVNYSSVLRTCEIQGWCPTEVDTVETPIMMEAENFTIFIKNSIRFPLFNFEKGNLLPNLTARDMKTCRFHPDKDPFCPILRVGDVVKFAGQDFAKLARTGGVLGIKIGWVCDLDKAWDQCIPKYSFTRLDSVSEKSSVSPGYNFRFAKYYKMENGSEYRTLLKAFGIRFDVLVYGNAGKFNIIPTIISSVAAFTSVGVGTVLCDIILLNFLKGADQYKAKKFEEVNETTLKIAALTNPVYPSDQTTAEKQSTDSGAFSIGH

P2X5 = P2X5 (Homo sapiens, UniProt Q93086); settings: standard inhibitors; reference mark 15; read-out: P2X5 Ki ± SEM; cited from earlier work
Chain of P2X5 (Q93086 whole entry, species assumed): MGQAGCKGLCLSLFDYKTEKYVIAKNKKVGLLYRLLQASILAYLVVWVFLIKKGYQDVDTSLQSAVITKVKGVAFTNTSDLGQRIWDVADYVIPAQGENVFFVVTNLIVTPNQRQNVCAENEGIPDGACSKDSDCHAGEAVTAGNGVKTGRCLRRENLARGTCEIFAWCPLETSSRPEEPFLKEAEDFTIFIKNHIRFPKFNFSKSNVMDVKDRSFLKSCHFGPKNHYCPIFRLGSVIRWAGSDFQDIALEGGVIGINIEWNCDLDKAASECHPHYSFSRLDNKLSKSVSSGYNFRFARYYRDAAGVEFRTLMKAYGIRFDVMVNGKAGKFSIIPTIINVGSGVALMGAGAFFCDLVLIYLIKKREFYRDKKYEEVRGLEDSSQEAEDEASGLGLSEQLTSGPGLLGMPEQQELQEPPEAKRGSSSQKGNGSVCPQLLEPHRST

[2] = standard compounds, SEM not given

| SMILES | Ki (human NTPDase1) [µM] | Ki (human NTPDase2) [µM] | inhibition at 1000 µM (human NTPDase2) [%] | inhibition at 100 µM (hP2Y2) [%] | inhibition at 100 µM (hP2Y4) [%] | inhibition at 100 µM (rP2Y6) [%] | inhibition at 10 µM (hP2Y12) [%] | Ki (rat NTPDase1) [µM] | Ki (rat NTPDase2) [µM] | Ki (rat NTPDase3) [µM] | Ki (P2X1) [µM] | Ki (P2Y2) [µM] | Ki (P2Y6) [µM] | Ki (P2X2) [µM] | Ki (P2X5) [µM] | further results |
| --- | --- | --- | --- | --- | --- | --- | --- | --- | --- | --- | --- | --- | --- | --- | --- | --- |
| CCOP(=O)(OCC)C(NC(=O)CCNC(=O)[C@H]1O[C@@H](n2ccc(=O)[nH]c2=O)C(O)C1O)P(=O)(OCC)OCC (stereo in doubt) [Compound 11, 3-[(2S,3R,4S,5R)-5-(2,4-Dioxo-3,4-dihydropyrimidin-1(2H)-yl)-3,4-dihydroxy-tetrahydrofurane-2-carboxamido]propaneamidomethylenediphosphonic acid tetraethylester] | 325 ± 25 | ~175 | 51 | -12 ± 24 | 7 ± 20 | 14 ± 2 | 1 ± 5 | – | – | – | – | – | – | – | – | – |
| CCOP(=O)(OCC)C(NC(=O)CCCNC(=O)[C@H]1O[C@@H](n2ccc(=O)[nH]c2=O)C(O)C1O)P(=O)(OCC)OCC (stereo in doubt) [Compound 12, 4-[(2S,3R,4S,5R)-5-(2,4-Dioxo-3,4-dihydropyrimidin-1(2H)-yl)-3,4-dihydroxytetrahydrofurane-2-carboxamido]butaneamidomethylenediphosphonic acid tetraethylester] | 32.4 ± 1.1 | ~165 | 54 | -44 ± 20 | 27 ± 7 | 18 ± 4 | 1 ± 5 | – | – | – | – | – | – | – | – | – |
| CCN(CC)c1ncnc2c1ncn2C1OC(COP(=O)(O)OP(=O)(O)C(Br)(Br)P(=O)(O)O)C(O)C1O (stereo not drawn) [ARL67156, N^6-Diethyl-β,γ-dibromomethylene-ATP] | – | – | – | – | – | – | – | 27 ± 0.004 | > 600 | 112.1 ± 0.05 | – | – | – | – | – | metabolic stability towards ecto-nucleotide pyrophosphatases (E-NPP) [1]: metabolically unstable |
| Cc1nc(N=Nc2ccc(S(=O)(=O)O)cc2S(=O)(=O)O)c(COP(=O)(O)O)c(C=O)c1O [PPADS, pyridoxalphosphate-6-azophenyl-2′,4′-disulfonic acid] | – | – | – | – | – | – | – | 46 ± 0.01 | 44.2 ± 0.03 | 3 ± 0.001 | 0.13 | – | – | – | – | P2Y2 Ki ± SEM [μM] (P2Y2): inactive; P2Y4 inhib. at 100 μM (P2Y4; 100 μM): 73%; P2Y6 inhib. at 100 μM (P2Y6; 100 μM): 69% |
| Nc1c(S(=O)(=O)O)cc(Nc2ccc(Nc3nc(Cl)nc(Nc4cccc(S(=O)(=O)O)c4)n3)c(S(=O)(=O)O)c2)c2c1C(=O)c1ccccc1C2=O [RB2, reactive blue 2] | – | – | – | – | – | – | – | – | – | – | 2 | 1 | 31 | 0.4 | 20 | Ki (P2Y4; [2]): > 100 µM; Ki (P2Y12): 1.3 µM; Ki (P2X3): 50 µM |
| Cc1ccc(C(=O)Nc2ccc(S(=O)(=O)O)c3cc(S(=O)(=O)O)cc(S(=O)(=O)O)c23)cc1NC(=O)c1cccc(NC(=O)Nc2cccc(C(=O)Nc3cc(C(=O)Nc4ccc(S(=O)(=O)O)c5cc(S(=O)(=O)O)cc(S(=O)(=O)O)c45)ccc3C)c2)c1 [Suramin, suramin] | – | – | – | – | – | – | – | 300 ± 0.1 | 65.4 ± 0.01 | 12.7 ± 0.03 | – | 50 | > 100 | 10 | 1.6 | P2Y4 Ki ± SEM [μM] (P2Y4; [2]): inactive |

Reference: patent US20100204182A1, “ECTONUCLEOTIDASE INHIBITORS” (RHEINISCHE FRIEDRICH-WILHELMS-UNIVERSITAT BONN, priority 2006, published 2010)
